Laboratory results: patent US11274084B2, “3-aryl-4-amido-bicyclic [4,5,0] hydroxamic acids as HDAC inhibitors” (Valo Health, Inc., priority 2015, dated 2022)

What follows are compounds tested against T1, HDAC6 (Homo sapiens, UniProt Q9UBN7) (assay: In vitro histone deacetylase assay: enzymatic HDAC6 assay by electrophoretic mobility shift). Settings: full length human recombinant HDAC6 1 nM, 2 μM peptide substrate RHKK(Ac)-NH2, 25° C., 12 concentrations; read-out: Inhibitory Concentration (IC50) against HDAC6, Activity Range.
T1 construct: Full length human recombinant HDAC6 protein; made in house
T1 sequence (Q9UBN7 1-1215): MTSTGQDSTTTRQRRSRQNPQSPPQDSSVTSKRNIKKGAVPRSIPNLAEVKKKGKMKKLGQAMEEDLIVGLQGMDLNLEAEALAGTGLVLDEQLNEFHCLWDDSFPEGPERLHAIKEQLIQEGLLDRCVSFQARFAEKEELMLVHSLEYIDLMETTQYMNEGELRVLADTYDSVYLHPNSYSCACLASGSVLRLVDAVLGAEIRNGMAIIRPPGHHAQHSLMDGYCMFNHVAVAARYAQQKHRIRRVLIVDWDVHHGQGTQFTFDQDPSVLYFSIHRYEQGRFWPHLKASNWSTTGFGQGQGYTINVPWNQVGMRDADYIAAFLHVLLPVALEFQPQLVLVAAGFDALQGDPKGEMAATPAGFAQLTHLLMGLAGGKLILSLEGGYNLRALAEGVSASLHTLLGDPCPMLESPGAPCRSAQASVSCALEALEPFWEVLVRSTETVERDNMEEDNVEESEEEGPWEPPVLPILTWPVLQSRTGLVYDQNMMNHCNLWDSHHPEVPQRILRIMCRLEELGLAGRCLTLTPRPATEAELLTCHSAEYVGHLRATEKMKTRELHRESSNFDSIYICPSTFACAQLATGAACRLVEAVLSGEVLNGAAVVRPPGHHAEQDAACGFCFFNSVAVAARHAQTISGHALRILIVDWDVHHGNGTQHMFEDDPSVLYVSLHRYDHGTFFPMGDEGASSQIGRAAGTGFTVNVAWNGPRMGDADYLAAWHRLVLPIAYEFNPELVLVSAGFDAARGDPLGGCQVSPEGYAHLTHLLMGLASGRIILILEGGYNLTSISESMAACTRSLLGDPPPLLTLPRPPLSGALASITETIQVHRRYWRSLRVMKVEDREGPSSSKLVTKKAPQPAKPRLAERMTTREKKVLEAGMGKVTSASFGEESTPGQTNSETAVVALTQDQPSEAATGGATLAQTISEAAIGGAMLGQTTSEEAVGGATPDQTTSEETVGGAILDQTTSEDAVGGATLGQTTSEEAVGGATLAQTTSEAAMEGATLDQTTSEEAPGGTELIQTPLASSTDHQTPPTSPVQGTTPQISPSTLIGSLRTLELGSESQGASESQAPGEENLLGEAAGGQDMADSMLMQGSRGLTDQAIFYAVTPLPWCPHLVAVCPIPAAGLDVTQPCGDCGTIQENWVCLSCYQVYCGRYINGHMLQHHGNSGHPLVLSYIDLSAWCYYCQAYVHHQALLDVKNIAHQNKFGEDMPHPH
Assay type: biochemical
Procedure: The enzymatic HDAC6 assay was performed using electrophoretic mobility shift assay. […] The enzymatic reactions were assembled in 384-well plates in a total volume of 25 μL of a reaction buffer comprising. 100 mM HEPES, pH 7.5, 25 mM KCl, 0.1% bovine serum albumin, 0.01% Triton X-100, 1% DMSO (from compounds), 2 μM of the fluorescently labeled peptide substrate, and enzyme. The enzyme was added at a final concentration of 1 nM. The peptide substrate RHKK(Ac)-NH2 was used. The compounds were tested at 12 concentrations spaced by 3× dilution intervals. Negative control samples (0%-inhibition in the absence of inhibitor) and positive control samples (100%-inhibition) were assembled in replicates of four in each assay plate. The reactions were incubated at 25° C. and quenched by the addition of 45 μL of termination buffer (100 mM HEPES, pH 7.5, 0.01% Triton X-100, 0.05% SDS).
The terminated assay plates were analyzed on LabChip® 3000 microfluidic electrophoresis instrument (Perkin Elmer/Caliper Life Sciences). The fluorescence intensity of the electrophoretically separated de-acetylated product and substrate peptide was measured. Activity in each sample was determined as the product to sum ratio (PSR):P/(S+P), where P is the peak height of the product peptide and S is the peak height of the substrate peptide. Percent inhibition (Pinh) is determined using the following equation:
Pinh=(PSR0%−PSRinh)/(PSR0%−PSR100%)*100, where PSRinh is the product sum ratio in the presence of inhibitor, PSR0% is the average product sum ration in the absence of inhibitor, and PSR100% is the average product sum ratio in 100%-inhibition control samples. The IC50 values of inhibitors were determined by fitting the %-inhibition curves with 4 parameter dose-response models using XLfit 4 software.

| SMILES | IC50 |
| --- | --- |
| O=C(NO)c1ccc2c(c1)OC[C@H](c1cccnc1)N(C(=O)C1CCOCC1)C2 (single isomer, unassigned) | 100 to 500 nM |
| CC(C)(C)C(=O)N1Cc2ccc(C(=O)NO)cc2OC[C@@H]1c1ccccc1 [(S)-N-hydroxy-3-phenyl-4-pivaloyl-2,3,4,5-tetrahydrobenzo[f][1,4]oxazepine-8-carboxamide] | ≤ 100 nM |
| CN1CCC(C(=O)N2Cc3ccc(C(=O)NO)cc3OC[C@@H]2c2ccccc2)CC1 [(S)-N-hydroxy-4-(1-methylpiperidine-4-carbonyl)-3-phenyl-2,3,4,5-tetrahydrobenzo[f][1,4]oxazepine-8-carboxamide] | ≤ 100 nM |
| COCC1(C(=O)N2Cc3ccc(C(=O)NO)cc3OC[C@@H]2c2ccccc2)CC1 [(S)—N-hydroxy-4-(1-(methoxymethyl)cyclopropane-1-carbonyl)-3-phenyl-2,3,4,5-tetrahydrobenzo[f][1,4]oxazepine-8-carboxamide] | ≤ 100 nM |
| O=C(NO)c1ccc2c(c1)OC[C@H](c1ccccc1)N(C(=O)C1CCCO1)C2 (stereo partly drawn) [(3S)-N-hydroxy-3-phenyl-4-(tetrahydrofuran-2-carbonyl)-2,3,4,5-tetrahydrobenzo[f][1,4]oxazepine-8-carboxamide] | ≤ 100 nM |
| O=C(NO)c1ccc2c(c1)OC[C@H](c1ccccc1)N(C(=O)C1COC1)C2 [(S)-N-hydroxy-4-(oxetane-3-carbonyl)-3-phenyl-2,3,4,5-tetrahydrobenzo[f][1,4]oxazepine-8-carboxamide] | ≤ 100 nM |
| Cc1ccc([C@H]2COc3cc(C(=O)NO)ccc3CN2C(=O)C2CCOCC2)cc1 [(S)-N-hydroxy-4-(tetrahydro-2H-pyran-4-carbonyl)-3-(p-tolyl)-2,3,4,5-tetrahydrobenzo[f][1,4]oxazepine-8-carboxamide] | ≤ 100 nM |
| O=C(NO)c1ccc2c(c1)OC[C@H](c1cccc(Cl)c1)N(C(=O)C1CCOCC1)C2 [(S)-3-(3-chlorophenyl)-N-hydroxy-4-(tetrahydro-2H-pyran-4-carbonyl)-2,3,4,5-tetrahydrobenzo[f][1,4]oxazepine-8-carboxamide] | ≤ 100 nM |
| O=C(NO)c1ccc2c(c1)OC[C@H](c1cccc(F)c1)N(C(=O)C1CCOCC1)C2 [(S)-3-(3-fluorophenyl)-N-hydroxy-4-(tetrahydro-2H-pyran-4-carbonyl)-2,3,4,5-tetrahydrobenzo[f][1,4]oxazepine-8-carboxamide] | ≤ 100 nM |

The next lines start with the values.

| IC50 | SMILES |
| --- | --- |
| ≤ 100 nM | CO[C@H]1CC[C@@H](C(=O)N2Cc3ccc(C(=O)NO)cc3OC[C@@H]2c2ccccc2)CC1 [(S)-N-hydroxy-4-((1s,4R)-4-methoxycyclohexane-1-carbonyl)-3-phenyl-2,3,4,5-tetrahydrobenzo[f][1,4]oxazepine-8-carboxamide] |
| ≤ 100 nM | COC(C)(C)C(=O)N1Cc2ccc(C(=O)NO)cc2OC[C@@H]1c1ccccc1 [(S)-N-hydroxy-4-(2-methoxy-2-methylpropanoyl)-3-phenyl-2,3,4,5-tetrahydrobenzo[f][1,4]oxazepine-8-carboxamide] |
| ≤ 100 nM | O=C(NO)c1ccc2c(c1)OC[C@H](c1ccccc1)N(C(=O)C1(F)CCOCC1)C2 [(S)-4-(4-fluorotetrahydro-2H-pyran-4-carbonyl)-N-hydroxy-3-phenyl-2,3,4,5-tetrahydrobenzo[f][1,4]oxazepine-8-carboxamide] |
| ≤ 100 nM | O=C(NO)c1ccc2c(c1)OC[C@H](c1ccccc1)N(C(=O)C1CC3CCC(C1)O3)C2 (stereo partly drawn) [(3S)-4-(8-oxabicyclo[3.2.1]octane-3-carbonyl)-N-hydroxy-3-phenyl-2,3,4,5-tetrahydrobenzo[f][1,4]oxazepine-8-carboxamide] |
| ≤ 100 nM | O=C(NO)c1ccc2c(c1)OC[C@H](c1cccc(C(F)(F)F)c1)N(C(=O)C1CCOCC1)C2 (single isomer, unassigned) |
| ≤ 100 nM | O=C(NO)c1ccc2c(c1)OC[C@H](c1ccccc1)N(C(=O)C1CCOCC1)C2 [(S)-N-hydroxy-3-phenyl-4-(tetrahydro-2H-pyran-4-carbonyl)-2,3,4,5-tetrahydrobenzo[f][1,4]oxazepine-8-carboxamide] |
